Values quoted from earlier work in US10117956B2, “Radiolabeled active targeting pharmaceutical composition and the use thereof” (Institute of Nuclear Energy Research Atomic Energy Council, …, priority 2013, dated 2018).

Details: 30 minutes after injection

concentration in the blood: 1.11 % ID/g
SMILES: O=C[C@H](O)[C@@H](O)[C@H](O)[C@H](O)CF [6-FDG, 6-fluoro-6-deoxy-D-glucose]
